Measured values published in patent publication US20170320870A1 (Medical Research Council Technology, priority 2009, published 2017).

Tests used:
Type in all cases: biochemical
[1] = molecular target: each specific kinase (kinase selectivity panel, Table 2) (Homo sapiens, UniProt P11309); assay: Kinase selectivity: percentage inhibition of each specific kinase at 1 μM inhibitor concentration; conditions: PIM1
Procedure: (§1) Values are expressed as percentage inhibition of the each specific kinase at 1 μM inhibitor concentration.

[2] = molecular target: each specific kinase (kinase selectivity panel, Table 2) (Homo sapiens, UniProt Q13233); assay: as above; conditions: MEKK1
each specific kinase (kinase selectivity panel, Table 2) (Homo sapiens, UniProt Q13233), sequence (Q13233 whole entry): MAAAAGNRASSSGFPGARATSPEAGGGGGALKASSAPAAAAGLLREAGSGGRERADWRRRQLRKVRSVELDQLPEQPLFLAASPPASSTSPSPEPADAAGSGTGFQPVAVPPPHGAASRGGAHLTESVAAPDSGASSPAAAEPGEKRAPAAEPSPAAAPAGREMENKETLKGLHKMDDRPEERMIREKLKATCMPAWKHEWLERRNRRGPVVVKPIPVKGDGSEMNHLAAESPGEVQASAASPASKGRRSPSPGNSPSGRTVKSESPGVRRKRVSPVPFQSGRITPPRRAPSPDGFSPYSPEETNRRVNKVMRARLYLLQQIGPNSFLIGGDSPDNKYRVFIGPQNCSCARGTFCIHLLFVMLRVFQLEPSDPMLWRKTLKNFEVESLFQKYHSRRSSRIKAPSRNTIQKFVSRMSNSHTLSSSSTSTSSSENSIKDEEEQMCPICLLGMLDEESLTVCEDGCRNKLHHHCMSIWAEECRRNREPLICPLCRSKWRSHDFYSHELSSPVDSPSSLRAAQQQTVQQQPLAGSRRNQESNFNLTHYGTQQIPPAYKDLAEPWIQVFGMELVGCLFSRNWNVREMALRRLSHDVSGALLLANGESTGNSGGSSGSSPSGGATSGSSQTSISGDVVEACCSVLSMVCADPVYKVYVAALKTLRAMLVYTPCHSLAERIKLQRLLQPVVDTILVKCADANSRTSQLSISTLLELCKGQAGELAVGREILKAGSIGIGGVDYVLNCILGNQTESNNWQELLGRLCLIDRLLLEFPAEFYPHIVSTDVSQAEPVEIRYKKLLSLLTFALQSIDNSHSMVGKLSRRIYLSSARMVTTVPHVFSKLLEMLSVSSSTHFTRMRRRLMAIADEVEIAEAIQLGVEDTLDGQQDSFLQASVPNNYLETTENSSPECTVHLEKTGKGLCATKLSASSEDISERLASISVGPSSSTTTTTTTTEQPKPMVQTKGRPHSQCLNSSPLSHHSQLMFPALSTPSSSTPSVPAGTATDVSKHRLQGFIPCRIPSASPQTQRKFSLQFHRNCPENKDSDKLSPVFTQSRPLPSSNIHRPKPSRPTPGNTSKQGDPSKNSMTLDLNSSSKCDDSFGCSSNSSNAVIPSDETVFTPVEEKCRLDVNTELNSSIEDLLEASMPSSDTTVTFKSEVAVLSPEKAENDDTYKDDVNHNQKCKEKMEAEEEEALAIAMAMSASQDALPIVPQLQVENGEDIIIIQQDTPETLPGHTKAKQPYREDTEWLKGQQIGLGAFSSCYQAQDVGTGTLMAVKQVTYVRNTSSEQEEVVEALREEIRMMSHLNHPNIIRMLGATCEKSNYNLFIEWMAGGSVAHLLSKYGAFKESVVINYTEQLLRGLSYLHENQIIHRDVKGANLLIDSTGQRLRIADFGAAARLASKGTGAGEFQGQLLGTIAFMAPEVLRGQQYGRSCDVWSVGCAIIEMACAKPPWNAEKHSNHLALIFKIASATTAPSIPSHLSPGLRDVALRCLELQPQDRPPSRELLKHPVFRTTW
Procedure: as §1

[3] = molecular target: each specific kinase (kinase selectivity panel, Table 2) (Homo sapiens, UniProt Q15831); assay: as above; conditions: LKB1
each specific kinase (kinase selectivity panel, Table 2) (Homo sapiens, UniProt Q15831), sequence (Q15831 whole entry): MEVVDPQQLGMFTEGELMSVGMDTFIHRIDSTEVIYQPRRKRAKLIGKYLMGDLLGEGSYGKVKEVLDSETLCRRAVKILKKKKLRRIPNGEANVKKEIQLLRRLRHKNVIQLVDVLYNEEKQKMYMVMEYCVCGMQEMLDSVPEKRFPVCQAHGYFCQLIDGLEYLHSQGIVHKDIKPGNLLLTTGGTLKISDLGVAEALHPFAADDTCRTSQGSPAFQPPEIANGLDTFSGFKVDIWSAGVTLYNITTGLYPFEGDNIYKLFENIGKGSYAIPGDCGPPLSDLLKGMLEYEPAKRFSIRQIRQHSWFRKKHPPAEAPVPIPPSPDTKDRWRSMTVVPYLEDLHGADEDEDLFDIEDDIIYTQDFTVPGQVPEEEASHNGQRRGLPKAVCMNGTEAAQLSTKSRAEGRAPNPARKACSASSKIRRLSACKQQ
Procedure: as §1

[4] = molecular target: each specific kinase (kinase selectivity panel, Table 2) (Homo sapiens, UniProt Q8IW41); assay: as above; conditions: PRAK
each specific kinase (kinase selectivity panel, Table 2) (Homo sapiens, UniProt Q8IW41), sequence (Q8IW41 whole entry): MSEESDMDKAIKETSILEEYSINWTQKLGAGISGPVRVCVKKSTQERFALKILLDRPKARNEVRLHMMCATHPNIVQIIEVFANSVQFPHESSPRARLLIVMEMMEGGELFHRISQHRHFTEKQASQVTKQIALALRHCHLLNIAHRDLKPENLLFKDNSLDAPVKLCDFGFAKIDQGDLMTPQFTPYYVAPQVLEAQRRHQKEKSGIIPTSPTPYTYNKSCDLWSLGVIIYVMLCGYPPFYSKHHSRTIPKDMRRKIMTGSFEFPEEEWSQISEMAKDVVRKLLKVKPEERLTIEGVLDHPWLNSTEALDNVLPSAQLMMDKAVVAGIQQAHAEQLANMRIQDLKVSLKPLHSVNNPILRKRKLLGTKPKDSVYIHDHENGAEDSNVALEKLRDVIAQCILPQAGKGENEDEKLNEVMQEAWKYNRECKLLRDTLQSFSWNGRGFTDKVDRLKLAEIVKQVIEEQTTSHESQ
Procedure: as §1

[5] = molecular target: each specific kinase (kinase selectivity panel, Table 2) (Homo sapiens, UniProt O00418); assay: as above; conditions: EF2K
each specific kinase (kinase selectivity panel, Table 2) (Homo sapiens, UniProt O00418), sequence (O00418 whole entry): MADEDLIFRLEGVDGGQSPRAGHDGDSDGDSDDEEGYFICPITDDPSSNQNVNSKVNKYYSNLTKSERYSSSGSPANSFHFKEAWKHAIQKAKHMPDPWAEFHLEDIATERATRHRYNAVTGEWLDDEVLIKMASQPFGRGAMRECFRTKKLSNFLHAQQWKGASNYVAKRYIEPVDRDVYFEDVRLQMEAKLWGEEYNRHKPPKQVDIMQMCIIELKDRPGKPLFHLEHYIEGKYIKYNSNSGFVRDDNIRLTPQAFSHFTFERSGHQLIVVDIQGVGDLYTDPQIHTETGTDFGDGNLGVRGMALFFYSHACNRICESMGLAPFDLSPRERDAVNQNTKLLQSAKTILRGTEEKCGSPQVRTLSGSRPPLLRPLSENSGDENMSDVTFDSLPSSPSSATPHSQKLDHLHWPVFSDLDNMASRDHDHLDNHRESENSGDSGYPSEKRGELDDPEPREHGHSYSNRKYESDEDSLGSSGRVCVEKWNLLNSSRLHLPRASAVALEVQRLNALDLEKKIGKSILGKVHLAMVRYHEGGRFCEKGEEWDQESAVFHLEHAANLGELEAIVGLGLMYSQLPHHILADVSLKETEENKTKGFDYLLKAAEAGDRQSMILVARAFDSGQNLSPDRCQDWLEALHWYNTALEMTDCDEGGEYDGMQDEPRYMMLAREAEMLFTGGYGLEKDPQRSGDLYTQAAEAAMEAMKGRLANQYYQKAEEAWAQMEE
Procedure: as §1

[6] = molecular target: each specific kinase (kinase selectivity panel, Table 2) (Homo sapiens, UniProt Q16513); assay: as above; conditions: PRK2
each specific kinase (kinase selectivity panel, Table 2) (Homo sapiens, UniProt Q16513), sequence (Q16513 whole entry): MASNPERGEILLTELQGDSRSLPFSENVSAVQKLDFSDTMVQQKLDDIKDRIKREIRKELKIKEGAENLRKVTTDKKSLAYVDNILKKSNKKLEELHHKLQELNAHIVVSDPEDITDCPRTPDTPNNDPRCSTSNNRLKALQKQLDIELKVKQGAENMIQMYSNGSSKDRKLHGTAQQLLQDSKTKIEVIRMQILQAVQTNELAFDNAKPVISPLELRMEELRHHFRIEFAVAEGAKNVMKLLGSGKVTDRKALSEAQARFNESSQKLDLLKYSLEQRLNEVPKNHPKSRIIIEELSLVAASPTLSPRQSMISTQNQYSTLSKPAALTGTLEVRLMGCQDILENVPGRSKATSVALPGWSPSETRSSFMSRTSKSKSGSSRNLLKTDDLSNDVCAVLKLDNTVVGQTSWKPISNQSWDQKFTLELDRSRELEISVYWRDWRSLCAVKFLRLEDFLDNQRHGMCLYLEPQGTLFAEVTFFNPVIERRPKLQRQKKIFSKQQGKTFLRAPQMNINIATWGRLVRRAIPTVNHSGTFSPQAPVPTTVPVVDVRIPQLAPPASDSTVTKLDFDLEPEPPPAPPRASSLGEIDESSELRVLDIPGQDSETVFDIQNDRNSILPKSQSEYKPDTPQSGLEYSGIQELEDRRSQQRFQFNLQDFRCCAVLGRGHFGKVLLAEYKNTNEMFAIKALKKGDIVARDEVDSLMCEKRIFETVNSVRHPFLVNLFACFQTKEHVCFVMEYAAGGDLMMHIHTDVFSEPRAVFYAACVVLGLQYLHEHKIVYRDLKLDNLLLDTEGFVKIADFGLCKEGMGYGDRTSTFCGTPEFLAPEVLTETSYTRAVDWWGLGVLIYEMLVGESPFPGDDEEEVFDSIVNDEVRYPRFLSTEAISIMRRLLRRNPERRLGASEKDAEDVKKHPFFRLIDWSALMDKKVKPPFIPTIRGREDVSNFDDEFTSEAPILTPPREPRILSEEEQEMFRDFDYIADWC
Procedure: as §1

[7] = test system: each specific kinase (kinase selectivity panel, Table 2); assay: as above
Procedure: as §1

[8] = molecular target: T1, LRRK2 wild type (recombinant human, catalytic domain amino acids 970-2527, GST-tagged) (Homo sapiens, UniProt Q5S007); assay: LRRK2 wild type protein kinase assay ([γ-33P] ATP, peptide substrate […]), IC50; conditions: LRRK2 (variant not given); read-out: Potency score, LRRK2 IC50
T1 construct: The wild type used was recombinant human, catalytic domain (amino acids 970-2527) GST-tagged, expressed in insect cells; GST; purchased Invitrogen Corporation PV4873; host or cells: insect cells
Summary of the method: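 IC50 derived from duplicate 10-point titrations, with 33P incorporation into a 100 μM peptide counted after P81 filter capture. Roughly 5 nM unactivated kinase reacted with Mg/[γ-33P]ATP for 180 min at room temperature (~21 °C), pH 7.5 Tris buffer containing 10 mM MgCl2, EGTA and DTT; acid-quenched.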

each specific kinase (kinase selectivity panel, Table 2) (Homo sapiens, UniProt P11309), sequence (P11309 whole entry): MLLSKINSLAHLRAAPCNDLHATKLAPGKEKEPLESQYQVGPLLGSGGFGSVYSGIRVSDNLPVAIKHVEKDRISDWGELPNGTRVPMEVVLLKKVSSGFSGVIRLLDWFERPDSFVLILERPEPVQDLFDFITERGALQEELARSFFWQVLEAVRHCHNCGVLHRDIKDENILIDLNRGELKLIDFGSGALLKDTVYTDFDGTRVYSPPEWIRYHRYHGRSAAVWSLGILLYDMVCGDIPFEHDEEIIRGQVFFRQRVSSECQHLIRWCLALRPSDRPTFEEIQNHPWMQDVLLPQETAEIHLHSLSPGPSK

## CC[C@H](C)Oc1nccc2[nH]nc(C)c12 [Example 121, 4-((S)-sec-Butoxy)-3-methyl-1H-pyrazolo[4,3-c]pyridine]
[1]
  percentage inhibition of PIM1: 15 percentage
[2]
  percentage inhibition of MEKK1: 0 percentage
[3]
  percentage inhibition of LKB1: 42 percentage
[4]
  percentage inhibition of PRAK: 0 percentage
[5]
  percentage inhibition of EF2K: 0 percentage
[6]
  percentage inhibition of PRK2: 39 percentage
[7]
  percentage inhibition of AMPK: 29 percentage
  percentage inhibition of PHK: 7 percentage
[8]
  IC50: < 100 nM

## O=C(CCc1n[nH]c2ccnc(NC3CCCCC3)c12)N1CCC[C@H](c2ccccc2)C1 [Example 172, 3-(4-Cyclohexylamino-1H-pyrazolo[4,3-c]pyridin-3-yl)-1-((R)-3-phenyl-piperidin-1-yl)-propan-1-one]
[1]
  percentage inhibition of PIM1: 0 percentage
[2]
  percentage inhibition of MEKK1: 7 percentage
[3]
  percentage inhibition of LKB1: 8 percentage
[4]
  percentage inhibition of PRAK: 0 percentage
[5]
  percentage inhibition of EF2K: 0 percentage
[6]
  percentage inhibition of PRK2: 16 percentage
[7]
  percentage inhibition of AMPK: 0 percentage
  percentage inhibition of PHK: 26 percentage
[8]
  IC50: < 100 nM
